Laboratory results reported in PubChem BioAssay AID1117347 (Cheminformatics & Chemogenomics Research Group (CCRG), …, 2015).
Calls of active or inactive are those of the source. No rule for the calls is given here.

Each compound was assayed on HeLa cell count decrease (assay: decrease in HeLa cell numbers, dose-response curve, cell enumeration, 50% inhibitory concentration (AID 1117347)).

SMILES	IC50
CCCCCCCCCCOCC(O)CN (configuration not stated)	> 10000 nM (inactive)
O=c1[nH]c(=O)n([C@H]2C[C@H](O)[C@@H](CO)O2)cc1Br	> 10000 nM (inactive)
NC(=NCCCCCCN=C(N)/N=C(\N)Nc1ccc(Cl)cc1)/N=C(\N)Nc1ccc(Cl)cc1	6710 nM (inactive)
CC(=O)Oc1ccc(C2(c3ccc(OC(C)=O)cc3)Oc3ccccc3NC2=O)cc1	5750 nM (inactive)
CCCCCCNC(=O)n1cc(F)c(=O)[nH]c1=O	> 10000 nM (inactive)
COc1ccc(Cc2nccc3cc(OC)c(OC)cc23)cc1OC	> 10000 nM (inactive)
CN(C)/N=N/c1nc[nH]c1C(N)=O	> 10000 nM (inactive)
Oc1ccc([C@H]2CNCc3c2ccc(O)c3O)cc1O	> 10000 nM (inactive)
O=c1[nH]c(=O)n([C@H]2C[C@H](O)[C@@H](CO)O2)cc1F	> 10000 nM (inactive)
CC(C)=CCNc1ncnc2c1ncn2[C@@H]1O[C@H](CO)[C@@H](O)[C@H]1O	995 nM
CCC(COC(=O)c1cc(OC)c(OC)c(OC)c1)(c1ccccc1)N(C)C (configuration not stated)	> 10000 nM (inactive)
CCCCCCC[N+](CC)(CC)CCCCc1ccc(Cl)cc1	> 10000 nM (inactive)
CC(=O)O[C@@]12CO[C@@H]1C[C@H](O)[C@@]1(C)C(=O)[C@H](O)C3=C(C)[C@@H](OC(=O)[C@H](O)[C@@H](NC(=O)OC(C)(C)C)c4ccccc4)C[C@@](O)([C@@H](OC(=O)c4ccccc4)[C@H]21)C3(C)C	1 nM
O=C1C2CC=CCC2C(=O)N1SC(Cl)(Cl)Cl (configuration not stated)	1780 nM
[O-][n+]1ccccc1SSc1cccc[n+]1[O-]	842 nM
CCc1nc(N)nc(N)c1-c1ccc(Cl)cc1	> 10000 nM (inactive)
C[C@@]12C(=O)OC(=O)[C@]1(C)C1CCC2O1	1010 nM
O=C(O)CCc1nc2ccccc2[nH]1	> 10000 nM (inactive)
COc1c(C)c2c(c(O)c1C/C=C(\C)CCC(=O)OCCN1CCOCC1)C(=O)OC2	> 10000 nM (inactive)
O=C1C(=O)c2ccccc2C(O)=C1C1CCC(c2ccc(Cl)cc2)CC1 (configuration not stated)	> 10000 nM (inactive)
CC(C)OC(=O)OCOP(=O)(CO[C@H](C)Cn1cnc2c(N)ncnc21)OCOC(=O)OC(C)C	289 nM
C[C@@H](O[C@H]1OCCN(Cc2n[nH]c(=O)[nH]2)[C@H]1c1ccc(F)cc1)c1cc(C(F)(F)F)cc(C(F)(F)F)c1	> 10000 nM (inactive)
CC(C)(C)C1CCC(CC2=C(O)c3ccccc3C(=O)C2=O)CC1 (configuration not stated)	> 10000 nM (inactive)
C=CC(=O)Nc1cc2c(Nc3ccc(F)c(Cl)c3)ncnc2cc1OCCCN1CCOCC1	2090 nM

SMILES	IC50
COc1cccc2c1C(=O)c1c(O)c3c(c(O)c1C2=O)C[C@@](O)(C(=O)CO)CC3OC1CC(N2CCOC(OC)C2)C(O)C(C)O1 (some centres not stated)	4.68 nM
CCN(CC)CCOc1ccc(C(O)(Cc2ccc(Cl)cc2)c2ccc(C)cc2)cc1 (configuration not stated)	> 10000 nM (inactive)
COC(=O)[C@H]1[C@H]2C[C@@H]3c4[nH]c5cc(OC)ccc5c4CCN3C[C@H]2C[C@@H](OC(=O)/C=C/c2ccc(O)c(OC)c2)[C@@H]1OC	> 10000 nM (inactive)
CCCSc1ccc2nc(NC(=O)OC)[nH]c2c1	37.7 nM
CCCNCC(O)COc1ccccc1C(=O)CCc1ccccc1 (configuration not stated)	> 10000 nM (inactive)
O=C(O)CN(CCN(CC(=O)O)CC(=O)O)CCN(CC(=O)O)CC(=O)O	> 10000 nM (inactive)
COC(=O)Nc1nc2ccc(S(=O)c3ccccc3)cc2[nH]1 (configuration not stated)	258 nM
CC[C@]1(O)C[C@H]2CN(CCc3c([nH]c4ccccc34)[C@@](C(=O)OC)(c3cc4c(cc3OC)N(C=O)[C@H]3[C@@](O)(C(=O)OC)[C@H](OC(C)=O)[C@]5(CC)C=CCN6CC[C@]43[C@@H]65)C2)C1	6.5 nM
O=C(O)CCCc1ccc(N(CCCl)CCCl)cc1	> 10000 nM (inactive)
N[C@@H](Cc1ccc(N(CCCl)CCCl)cc1)C(=O)O	390 nM
CN(C)CCC=C1c2ccccc2CCc2ccccc21	> 10000 nM (inactive)
CCCCCCCCCCCC[N+](C)(C)Cc1ccccc1	> 10000 nM (inactive)
C1CN(P2(N3CC3)=NP(N3CC3)(N3CC3)=NP(N3CC3)(N3CC3)=N2)CCO1 (configuration not stated)	> 10000 nM (inactive)
CC(C)c1c(C(=O)Nc2ccccc2)c(-c2ccccc2)c(-c2ccc(F)cc2)n1CC[C@@H](O)C[C@@H](O)CC(=O)O	> 10000 nM (inactive)
Oc1c(I)cc(I)c2cccnc12	> 10000 nM (inactive)
CCCCc1ccc2nc(NC(=O)OC)[nH]c2c1	5.66 nM
O=C(CCBr)N1CCN(C(=O)CCBr)CC1	> 10000 nM (inactive)
COC(=O)Nc1nc2ccc(C(=O)C3CC3)cc2[nH]1	297 nM
CC(=O)Nc1ccn(C2COC(COC(=O)c3ccccc3)O2)c(=O)n1 (configuration not stated)	281 nM
COc1cc(-c2ccc(=O)[nH]n2)ccc1OC(F)F	9.2 nM
CO[C@@H]1[C@@H](OC)[C@H](C)[C@@](O)(CC(=O)O)O[C@H]1[C@H](C)[C@H]1O[C@@]2(CC[C@@](C)([C@H]3CC[C@@](C)([C@@H]4O[C@@H]([C@H]5O[C@](C)(O)[C@H](C)C[C@@H]5C)C[C@@H]4OC4C[C@H](OC)[C@@H](OC)[C@H](C)O4)O3)O2)C[C@H](O)[C@H]1C (some centres not stated)	2750 nM
CCCCCCCCCCCCNCCNCCNCC(=O)O	> 10000 nM (inactive)
Cc1nc2ccccc2n1Cc1ccc(Cl)cc1	31.8 nM
O=[N+]([O-])c1ccc(Oc2ccc(N=C=S)cc2)cc1	> 10000 nM (inactive)

SMILES	IC50
O=[N+]([O-])c1ccc(O)c2ncccc12	295 nM
Oc1c(Cl)cc(Cl)cc1Sc1cc(Cl)cc(Cl)c1O	> 10000 nM (inactive)
Clc1ccccc1C(c1ccccc1)(c1ccccc1)n1ccnc1	> 10000 nM (inactive)
O=c1[nH]cc(F)c(=O)[nH]1	> 10000 nM (inactive)
Cc1nc(Nc2ncc(C(=O)Nc3c(C)cccc3Cl)s2)cc(N2CCN(CCO)CC2)n1	875 nM
COc1ccc2cc3[n+](cc2c1OC)CCc1cc2c(cc1-3)OCO2	> 10000 nM (inactive)
CC(C)=CCOc1ccc(/C=C/C(=O)c2ccc(OCC=C(C)C)cc2OCC(=O)O)cc1	> 10000 nM (inactive)
Fc1ccc(C(OCCN2CCN(CCCc3ccccc3)CC2)c2ccc(F)cc2)cc1	3200 nM
COc1ccc2cc1Oc1ccc(cc1)C[C@H]1c3c(cc4c(c3Oc3cc5c(cc3OC)CCN(C)[C@@H]5C2)OCO4)CCN1C	5540 nM (inactive)
C=C(C)[C@H]1Cc2c(ccc3c2O[C@@H]2COc4cc(OC)c(OC)cc4[C@@H]2C3=O)O1	153 nM
CCN(CCCCOC(=O)c1ccc(OC)c(OC)c1)C(C)Cc1ccc(OC)cc1 (configuration not stated)	> 10000 nM (inactive)
COc1cccc2c1C(=O)c1c(O)c3c(c(O)c1C2=O)C[C@@](O)(C(=O)CO)C[C@@H]3O[C@H]1C[C@H](N)[C@H](O[C@@H]2CCCCO2)[C@H](C)O1	51.4 nM
COc1cc(NC(C)CCCN)c2ncccc2c1 (configuration not stated)	> 10000 nM (inactive)
COC(=O)Nc1nc2ccc(Sc3ccccc3)cc2[nH]1	9.7 nM
CCC(C)n1ncn(-c2ccc(N3CCN(c4ccc(OC[C@H]5CO[C@](Cn6cncn6)(c6ccc(Cl)cc6Cl)O5)cc4)CC3)cc2)c1=O (some centres not stated)	> 10000 nM (inactive)
O=C(c1cc(O)c(O)c(O)c1)c1ccc(O)c(O)c1O	> 10000 nM (inactive)
Cc1ccc(S(=O)(=O)NC(=O)NN2CC3CCCC3C2)cc1 (configuration not stated)	> 10000 nM (inactive)
CCCCOC(=O)c1ccc(N)cc1	> 10000 nM (inactive)
COC(=O)c1nc(Cl)c(Cl)nc1N	408 nM
CCCCC1C(=O)N(c2ccccc2)N(c2ccc(O)cc2)C1=O (configuration not stated)	1660 nM
CC[n+]1c(-c2ccccc2)c2cc(N)ccc2c2ccc(N)cc21	> 10000 nM (inactive)
CCN(CC)CCNc1ccc(CO)c2sc3ccccc3c(=O)c12	5920 nM (inactive)
Cc1c(C)c2c(c(C)c1O)CCC(C)(COc1ccc(CC3SC(=O)NC3=O)cc1)O2 (configuration not stated)	> 10000 nM (inactive)
CC(C)C[C@H](NC(=O)[C@H](CCc1ccccc1)NC(=O)CN1CCOCC1)C(=O)N[C@@H](Cc1ccccc1)C(=O)N[C@@H](CC(C)C)C(=O)[C@@]1(C)CO1	9.9 nM
